Laboratory results from patent US10111936B2, “Metal-glycoprotein complexes and photodynamic therapy of immune privileged sites with same” (Theralase Technologies, Inc., priority 2015, dated 2018).
Like-named read-outs stand apart in the source and are kept apart here.

Key:
[1] = test system: HT1376 cells
[2] = test system: AY27 cancer cell line; assay: In vitro PDT in hypoxia; format: cell-based; settings: 635 nm, 90 J cm−2, hypoxic 0.5-0.1% O2, 0.4 mg/mL human transferrin
Description: The cells were incubated for 90 minutes in premix of the photosensitizer and 0.4 mg/mL human transferrin (or without transferrin, as a control group) as described above for in vitro PDT. Dark toxicity and PDT effect of the photosensitizers on AY27 cell line under 635 nm (90 J cm−2) irradiation in the absence and presence of transferrin in normoxic (FIGS. 17A, 17B) and hypoxic (0.5-0.1% O2, FIGS. 17C, 17D) conditions. The cells were incubated with the photosensitizer and transferrin for 90 minutes. After that, the cells were irradiated and the medium was replaced with a fresh one (without photosensitizer and transferrin). On the next day (21 hours post-irradiation), viability of the cells was measured using Presto Blue viability assay, and percent of cell kill was calculated. The PDT effect shown is a result of subtraction of “photosensitizer alone” and “light alone” cell kill from the total PDT cell kill.
The cells were incubated for 90 minutes in premix of the photosensitizer and 0.4 mg/mL human transferrin (or without transferrin, as a control group) as described above for in vitro PDT. […] On the next day (21 hours post-irradiation), viability of the cells was measured using Presto Blue viability assay, and percent of cell kill was calculated. […]

[3] = test system: AY27 cancer cell line; assay: In vitro PDT effect, Presto Blue cell kill; format: cell-based; settings: 90 J cm−2, 0.4 mg/mL human transferrin, 30 minutes
Description: The photosensitizer was pre-mixed with 0.4 mg/mL human transferrin and incubated for 1 hour at 37° C. In control group (no additional transferrin), equivalent volume of no-transferrin medium was added. The cells were subsequently incubated with the pre-mixes for 30 minutes (FIG. 14A) or 90 minutes (FIG. 14B). After that, the medium was replaced with a fresh one (without photosensitizer and transferrin) and the cells were irradiated. On the next day (21 hours post-irradiation), viability of the cells was measured using Presto Blue viability assay, and percent of cell kill was calculated. The PDT effect shown is a result of subtraction of “photosensitizer alone” and “light alone” cell kill from the total PDT cell kill.
The photosensitizer was pre-mixed with 0.4 mg/mL human transferrin and incubated for 1 hour at 37° C. In control group (no additional transferrin), equivalent volume of no-transferrin medium was added. The cells were subsequently incubated with the pre-mixes for 30 minutes. After that, the medium was replaced with a fresh one (without photosensitizer and transferrin) and the cells were irradiated. On the next day (21 hours post-irradiation), viability of the cells was measured using Presto Blue viability assay, and percent of cell kill was calculated. […]

[4] = Fluorescence with and without transferrin; format: physicochemical; settings: for fluorescence emission maximum: 10 uM
Description: Fluorescence of TLD1433 (10 uM) was measured quartz cuvettes without Tf (in water) and in the presence of 0.2 mg/mL Tf (in phosphate buffer+100 mM NaCl, pH=7.0). Fluorescence was measured at different excitation wavelengths (380, 400, 450, 470, 500 nm).
Fluorescence of TLDOsH2dppn (10 uM) was measured quartz cuvettes without Tf (in water) and in the presence of 0.2 mg/mL Tf (in phosphate buffer+100 mM NaCl, pH=7.0). Fluorescence was measured at different excitation wavelengths (380, 400, 450, 470, 500 nm).

[5] = Hydroxyl radical production, cell free (HPF indicator fluorescence); format: physicochemical; design: unit not given here
Description: The photosensitizers were diluted in phosphate buffer (pH=7.0)+100 mM NaCl or incomplete DMEM. The irradiation was performed in 96-well plates (100 uL working volume). Generation of singlet oxygen was measured by fluorescence signal of SOG indicator, generation of hydroxyl radical by fluorescence signal of HPF indicator. The signal presented is a result of subtraction of the signal in the presence of scavengers (NaN3 for singlet oxygen and DMTU for hydroxyl radical) from the total fluorescence signal.

[6] = In vivo tissue uptake, tumor versus muscle; settings: 10 mg/kg i.v.; transferrin 1 mg/kg
Description: Transferrin was dissolved in 40% PG in phosphate buffer (pH=7.0)+100 mM NaCl (0.1 mg/100 uL) and added to the photosensitizer solution (to achieve 10 mg/kg dose). The mixture was incubated for 1 hour prior to injection, and 100 uL of the mixture was injected i.v. to each animal.

[Os+2].c1ccc2cc3nc4c5cccnc5c5ncccc5c4nc3cc2c1.c1ccc2nc(-c3ccc4ccccc4n3)ccc2c1.c1ccc2nc(-c3ccc4ccccc4n3)ccc2c1 [TLDOsH2dppn]
Therapeutic Ratio ([1]; 530 nm, 90 J cm−2, no transferrin): 1548.2
Therapeutic Ratio ([1]; 530 nm, 90 J cm−2, transferrin): 4963.8
Therapeutic Ratio ([1]; 650 nm, 90 J cm−2, no transferrin (cell not marked prophetic)): 37.7
Therapeutic Ratio ([1]; 650 nm, 90 J cm−2, transferrin): 61.9
PDT effect under hypoxic conditions, effect of transferrin [2]: ensured PDT effect
PDT effect, effect of transferrin ([3]; 530 nm): increases PDT effect
PDT effect, effect of transferrin ([3]; 635 nm): increases PDT effect
fluorescence emission maximum ([4]; 0.2 mg/mL transferrin): 650 nm
fluorescence emission maximum ([4]; no transferrin (in water)): 660 nm
fluorescence in the presence of transferrin ([4]; 0.2 mg/mL transferrin, especially at 470 nm excitation): strongly increased
hydroxyl radical production ([5]; 530 nm & 1092 J cm−2, incomplete DMEM, 0.8 mg/mL transferrin): 70308
hydroxyl radical production ([5]; 530 nm & 1092 J cm−2, incomplete DMEM, 1.6 mg/mL transferrin): 132309
hydroxyl radical production ([5]; 530 nm & 1092 J cm−2, incomplete DMEM, 3.2 mg/mL transferrin): 164301
hydroxyl radical production ([5]; 530 nm & 1092 J cm−2, incomplete DMEM, no transferrin): 32934
hydroxyl radical production ([5]; 530 nm & 1092 J cm−2, phosphate buffer, 0.8 mg/mL transferrin): 41037
hydroxyl radical production ([5]; 530 nm & 1092 J cm−2, phosphate buffer, 1.6 mg/mL transferrin): 83034
hydroxyl radical production ([5]; 530 nm & 1092 J cm−2, phosphate buffer, 3.2 mg/mL transferrin): 120307
hydroxyl radical production ([5]; 530 nm & 1092 J cm−2, phosphate buffer, no transferrin): 25290
hydroxyl radical production ([5]; 635 nm & 649 J cm−2, incomplete DMEM, 0.8 mg/mL transferrin): 32531
hydroxyl radical production ([5]; 635 nm & 649 J cm−2, incomplete DMEM, 1.6 mg/mL transferrin): 42806
hydroxyl radical production ([5]; 635 nm & 649 J cm−2, incomplete DMEM, 3.2 mg/mL transferrin): 73624
hydroxyl radical production ([5]; 635 nm & 649 J cm−2, incomplete DMEM, no transferrin): 12093
hydroxyl radical production ([5]; 635 nm & 649 J cm−2, phosphate buffer, 0.8 mg/mL transferrin): 25280
hydroxyl radical production ([5]; 635 nm & 649 J cm−2, phosphate buffer, 1.6 mg/mL transferrin): 45372
hydroxyl radical production ([5]; 635 nm & 649 J cm−2, phosphate buffer, 3.2 mg/mL transferrin): 72316
hydroxyl radical production ([5]; 635 nm & 649 J cm−2, phosphate buffer, no transferrin): 8804
hydroxyl radical production ([5]; 808 nm & 4000 J cm−2, incomplete DMEM, 0.8 mg/mL transferrin): 42305
hydroxyl radical production ([5]; 808 nm & 4000 J cm−2, incomplete DMEM, 1.6 mg/mL transferrin): 77024
hydroxyl radical production ([5]; 808 nm & 4000 J cm−2, incomplete DMEM, 3.2 mg/mL transferrin): 102864
hydroxyl radical production ([5]; 808 nm & 4000 J cm−2, incomplete DMEM, no transferrin): 14237
hydroxyl radical production ([5]; 808 nm & 4000 J cm−2, phosphate buffer, 0.8 mg/mL transferrin): 13408
hydroxyl radical production ([5]; 808 nm & 4000 J cm−2, phosphate buffer, 1.6 mg/mL transferrin): 20392
hydroxyl radical production ([5]; 808 nm & 4000 J cm−2, phosphate buffer, 3.2 mg/mL transferrin): 56094
hydroxyl radical production ([5]; 808 nm & 4000 J cm−2, phosphate buffer, no transferrin): 8931
uptake of the photosensitizer into tissues, effect of transferrin [6]: increases uptake
